Results reported in ChEMBL document CHEMBL4808217, “Design, Synthesis, and Characterization of 4-Aminoquinazolines as Potent Inhibitors of the G Protein-Coupled Receptor Kinase 6 (GRK6) for the Treatment of Multiple Myeloma” (J Med Chem, 2021).

Tests used:
Rhodopsin kinase GRK7 = target: T1, Rhodopsin kinase GRK7 (Homo sapiens, UniProt Q8WTQ7); assay: Inhibition of recombinant full length human GRK7 using casein as substrate incubated for 40 mins in presence of [gamma-33ATP] by scintillation counting based radiometry assay
T1 sequence (Q8WTQ7 whole entry): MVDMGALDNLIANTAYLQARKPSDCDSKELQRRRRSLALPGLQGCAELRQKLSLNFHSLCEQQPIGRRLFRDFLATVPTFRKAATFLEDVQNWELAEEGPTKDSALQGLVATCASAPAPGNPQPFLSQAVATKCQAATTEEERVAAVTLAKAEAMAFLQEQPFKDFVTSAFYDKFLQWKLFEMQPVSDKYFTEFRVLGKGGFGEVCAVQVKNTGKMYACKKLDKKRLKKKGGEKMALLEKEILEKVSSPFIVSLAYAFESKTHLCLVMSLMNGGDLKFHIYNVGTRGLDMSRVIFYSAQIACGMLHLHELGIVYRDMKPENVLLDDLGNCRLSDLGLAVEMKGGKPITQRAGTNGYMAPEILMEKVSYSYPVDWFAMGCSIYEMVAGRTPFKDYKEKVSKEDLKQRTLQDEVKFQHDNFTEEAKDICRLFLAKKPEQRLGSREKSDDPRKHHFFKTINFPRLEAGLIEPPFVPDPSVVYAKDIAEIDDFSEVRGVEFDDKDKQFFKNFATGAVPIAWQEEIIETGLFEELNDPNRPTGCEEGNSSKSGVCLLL

[1] = target: Serine/threonine-protein kinase Chk2 (Homo sapiens, UniProt O96017); assay: Inhibition of recombinant human CHK2 (5 to end residues) using KKKVSRSGLYRSPSMPENLNRPR as substrate incubated for 40 mins in presence of [gamma-33ATP] by scintillation counting based radiometry assay
[2] = target: G protein-coupled receptor kinase 4 (Homo sapiens, UniProt P32298); assay: Inhibition of human GRK4 using casein as substrate in presence of [gamma33P]ATP by radiometric hotspot kinase assay
[3] = target: T2, G protein-coupled receptor kinase 6 (Homo sapiens, UniProt P43250); assay: Inhibition of recombinant full-length human GRK6 using casein as substrate measured after 80 mins in presence of [gamma33P]ATP by radiometric scintillation counting method
[4] = target: T2, G protein-coupled receptor kinase 6; assay: Inhibition of human GRK6 using casein as substrate in presence of [gamma33P]ATP by radiometric hotspot kinase assay
[5] = target: Tyrosine-protein kinase JAK2 (Homo sapiens, UniProt O60674); assay: Inhibition of recombinant human JAK2 (808 to end residues) using KTFCGTPEYLAPE as substrate incubated for 40 mins in presence of [gamma33P]ATP by radiometric scintillation counting analysis
Chain of Tyrosine-protein kinase JAK2 (O60674 whole entry): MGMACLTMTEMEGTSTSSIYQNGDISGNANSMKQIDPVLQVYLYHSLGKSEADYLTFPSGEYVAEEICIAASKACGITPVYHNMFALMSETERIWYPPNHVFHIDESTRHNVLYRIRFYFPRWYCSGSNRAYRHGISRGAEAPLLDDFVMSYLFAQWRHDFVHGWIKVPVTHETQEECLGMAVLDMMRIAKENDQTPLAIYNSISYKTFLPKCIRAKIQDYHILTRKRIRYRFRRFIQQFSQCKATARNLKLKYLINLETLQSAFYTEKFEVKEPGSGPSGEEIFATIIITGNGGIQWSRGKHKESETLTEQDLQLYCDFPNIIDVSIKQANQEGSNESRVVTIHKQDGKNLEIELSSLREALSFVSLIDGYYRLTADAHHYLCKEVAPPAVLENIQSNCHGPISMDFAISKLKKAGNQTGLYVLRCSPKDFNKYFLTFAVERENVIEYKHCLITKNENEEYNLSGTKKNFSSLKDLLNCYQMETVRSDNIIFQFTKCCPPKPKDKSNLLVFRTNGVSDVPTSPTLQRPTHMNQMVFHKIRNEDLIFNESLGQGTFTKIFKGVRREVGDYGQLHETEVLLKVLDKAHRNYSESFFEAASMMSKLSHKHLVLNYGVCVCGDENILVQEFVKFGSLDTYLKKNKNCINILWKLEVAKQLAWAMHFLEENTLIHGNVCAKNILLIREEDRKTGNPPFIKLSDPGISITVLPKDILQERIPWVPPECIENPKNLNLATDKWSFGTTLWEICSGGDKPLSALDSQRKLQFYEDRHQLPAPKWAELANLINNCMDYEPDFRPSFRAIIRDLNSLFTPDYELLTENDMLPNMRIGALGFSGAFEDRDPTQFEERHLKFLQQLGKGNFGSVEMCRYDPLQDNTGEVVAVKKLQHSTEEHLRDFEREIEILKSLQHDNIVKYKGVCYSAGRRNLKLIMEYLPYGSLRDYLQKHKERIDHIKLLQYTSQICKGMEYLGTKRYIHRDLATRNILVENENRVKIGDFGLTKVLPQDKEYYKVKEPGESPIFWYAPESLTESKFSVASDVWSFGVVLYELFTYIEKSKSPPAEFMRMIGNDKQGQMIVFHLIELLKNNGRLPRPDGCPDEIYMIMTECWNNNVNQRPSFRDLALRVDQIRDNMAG

T2 sequence (P43250 whole entry): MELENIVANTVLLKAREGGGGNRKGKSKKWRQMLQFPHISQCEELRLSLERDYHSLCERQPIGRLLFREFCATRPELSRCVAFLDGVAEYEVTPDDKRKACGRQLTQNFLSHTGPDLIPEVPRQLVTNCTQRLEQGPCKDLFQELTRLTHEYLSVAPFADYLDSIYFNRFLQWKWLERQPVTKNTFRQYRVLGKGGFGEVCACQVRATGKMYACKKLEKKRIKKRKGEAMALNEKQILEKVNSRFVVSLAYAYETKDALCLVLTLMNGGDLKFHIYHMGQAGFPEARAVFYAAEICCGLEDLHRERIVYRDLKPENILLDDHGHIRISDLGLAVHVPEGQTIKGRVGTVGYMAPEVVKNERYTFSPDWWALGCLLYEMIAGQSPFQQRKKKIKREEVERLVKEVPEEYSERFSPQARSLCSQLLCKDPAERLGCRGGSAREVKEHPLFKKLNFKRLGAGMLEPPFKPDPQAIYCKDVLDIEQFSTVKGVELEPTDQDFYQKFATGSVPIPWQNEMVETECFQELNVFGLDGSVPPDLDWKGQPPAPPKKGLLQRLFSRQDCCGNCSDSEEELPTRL
Chain of Serine/threonine-protein kinase Chk2 (O96017 whole entry): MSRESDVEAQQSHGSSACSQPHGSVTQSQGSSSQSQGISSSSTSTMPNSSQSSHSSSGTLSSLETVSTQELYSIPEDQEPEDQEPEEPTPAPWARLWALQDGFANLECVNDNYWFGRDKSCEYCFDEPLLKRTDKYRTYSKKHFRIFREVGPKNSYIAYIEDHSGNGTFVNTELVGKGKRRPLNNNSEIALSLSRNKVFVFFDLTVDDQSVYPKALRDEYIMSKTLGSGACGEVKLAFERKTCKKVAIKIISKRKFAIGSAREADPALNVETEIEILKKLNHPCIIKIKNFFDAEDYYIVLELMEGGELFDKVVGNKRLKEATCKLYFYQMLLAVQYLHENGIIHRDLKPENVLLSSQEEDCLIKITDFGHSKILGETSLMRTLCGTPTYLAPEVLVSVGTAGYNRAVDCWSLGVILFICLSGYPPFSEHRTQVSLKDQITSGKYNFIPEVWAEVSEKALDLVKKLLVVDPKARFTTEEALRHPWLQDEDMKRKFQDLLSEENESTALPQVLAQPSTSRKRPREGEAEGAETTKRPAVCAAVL
Chain of G protein-coupled receptor kinase 4 (P32298 whole entry): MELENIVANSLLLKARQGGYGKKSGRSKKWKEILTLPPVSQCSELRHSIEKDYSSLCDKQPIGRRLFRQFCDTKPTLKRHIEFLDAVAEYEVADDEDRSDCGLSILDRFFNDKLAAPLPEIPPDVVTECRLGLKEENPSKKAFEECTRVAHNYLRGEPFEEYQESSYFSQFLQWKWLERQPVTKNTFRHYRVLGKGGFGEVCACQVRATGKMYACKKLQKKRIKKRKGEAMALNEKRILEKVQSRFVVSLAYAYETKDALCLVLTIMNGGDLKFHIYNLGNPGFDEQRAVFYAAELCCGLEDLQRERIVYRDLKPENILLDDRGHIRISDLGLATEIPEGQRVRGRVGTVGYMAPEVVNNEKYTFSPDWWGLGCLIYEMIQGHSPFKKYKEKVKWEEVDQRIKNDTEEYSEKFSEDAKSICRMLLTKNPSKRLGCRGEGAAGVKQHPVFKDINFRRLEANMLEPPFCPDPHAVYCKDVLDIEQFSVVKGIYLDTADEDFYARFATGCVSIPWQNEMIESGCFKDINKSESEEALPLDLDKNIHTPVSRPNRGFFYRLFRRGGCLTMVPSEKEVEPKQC

Question: Which IC50 (Rhodopsin kinase GRK7) does the source give for CCc1cc(Nc2nc(NCc3ccc(Cl)cc3OC)nc3cccc(OC)c23)n[nH]1 here?
Answer: The IC50 was 6.4 nM.

Question: And the IC50 [1]?
Answer: The IC50 was 820 nM.

Question: And the IC50 [2]?
Answer: Its IC50 is 22 nM.

Question: And the IC50 [3]?
Answer: Its IC50 is 8 nM.

Question: And the IC50 [4]?
Answer: The IC50 was 3.8 nM.

Question: What about the IC50 [5] of the same molecule?
Answer: Its IC50 is > 10000 nM.
